From patent US6716851B2, “Substituted 2-aryl-4-arylaminopyrimidines and analogs as activators or caspases and inducers of apoptosis and the use thereof” (Cytovia, Inc., priority 2000, dated 2004) come the findings set out here.

Structures are written as SMILES. pEC50: −log10 of the molar value. Bounds are passed on as bounds.

In one experiment the test system is ZR-75-1 cells. Nature of the experiment: Caspase cascade activation (N-(Ac-DEVD)-N'-ethoxycarbonyl-R110 fluorogenic substrate) in ZR-75-1 cells. The experiment is classed as cell-based, Human. The note with it: ZR-75-1, 48 h incubation; for pEC50: Homo sapiens, caspase activation potency; for ZR Ratio 48 hr: caspase activity: ratio of net RFU of test compound to control. In short, it runs like this:
(§1)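 Cells (0.65×10^6/ml) exposed 48 h at 37 °C to compound (0.016-10 μM final), then lysed with 14 μM DEVD-R110 substrate buffer (PIPES pH 7.2, DTT, lysolecithin) for 3 h at room temperature. Net fluorescence (485/530 nm) relative to control; EC50 by sigmoidal dose-response.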

The next experiment deals with T-47D cells. Put plainly: Caspase cascade activation (N-(Ac-DEVD)-N'-ethoxycarbonyl-R110 fluorogenic substrate) in T-47D cells. In kind it is cell-based, Human. The conditions noted are these: 48 h incubation; for pEC50: Homo sapiens, T47D, caspase activation potency, read-out: T47 EC50; for T47 Ratio 48 hr: caspase activity: ratio of net RFU of test compound to control. The gist of the method: as §1

With `COc1ccc(C(F)(F)F)cc1Nc1cc(C(F)(F)F)nc(-c2cccnc2)n1` [Example 89, 4-(2-Methoxy-5-trifluoromethylanilino)-2-(3-pyridinyl)-6-(trifluoromethyl)pyrimidine], in the experiment on ZR-75-1 cells, the pEC50 (in general, the EC50 on a negative log10 scale, so that one unit is a factor of ten) was 5.80 and the “ZR Ratio 48 hr” value is on record as 9.8. Also, in the experiment on T-47D cells, the pEC50 was 5.56 and the “T47 Ratio 48 hr” value worked out at 8.7.
The corresponding values for `Cc1ccc(N)cc1Nc1cc(C(F)(F)F)nc(-c2cccnc2)n1.Cl` [Example 91, 4-(5-Amino-2-methylanilino)-2-(3-pyridinyl)-6-(trifluoromethyl)pyrimidine hydrochloride] are 6.10, 8.8, 5.84 and 11.7.
In the case of `CCOc1cccc(Nc2cc(C(F)(F)F)nc(-c3ccccn3)n2)c1` [Example 92, 4-(3-Ethoxyanilino)-2-(2-pyridinyl)-6-(trifluoromethyl)pyrimidine], in the experiment on ZR-75-1 cells, the negative-log EC50 (pEC50) was 6.55 and the “ZR Ratio 48 hr” value was 12.4. Also, in the experiment with T-47D cells, the pEC50 was 6.44 and the “T47 Ratio 48 hr” value is 16.8.
Take `CCc1cccc(Nc2cc(C(F)(F)F)nc(-c3ccccn3)n2)c1` [Example 93, 4-(3-Ethylanilino)-2-(2-pyridinyl)-6-(trifluoromethyl)pyrimidine]: in the experiment on ZR-75-1 cells, the pEC50 is 5.69 and the “ZR Ratio 48 hr” value was 8.2. In the experiment with T-47D cells, the pEC50 was under 5.30 and the “T47 Ratio 48 hr” value is 2.0.
Taken in the same sequence, the figures for `COc1ccc(Cl)c(Nc2cc(C(F)(F)F)nc(-c3ccccn3)n2)c1` [Example 95, 4-(2-Chloro-5-methoxyanilino)-2-(2-pyridinyl)-6-(trifluoromethyl)pyrimidine] were 6.83, 8.6, 6.95 and 11.6.
The corresponding values for `CSc1cccc(Nc2cc(C(F)(F)F)nc(-c3ccccn3)n2)c1` [Example 96, 4-(3-Methylmercaptoanilino)-2-(2-pyridinyl)-6-(trifluoromethyl)pyrimidine] are 5.56, 4.9, under 5.30 and 1.4.
The corresponding values for `Cl.Oc1cccc(Nc2cc(C(F)(F)F)nc(-c3cccnc3)n2)c1` [Example 97, 4-(3-Hydroxyanilino)-2-(3-pyridinyl)-6-(trifluoromethyl)pyrimidine hydrochloride] are 6.14, 6.7, 6.18 and 14.5.
With `CCOc1ccc(OCC)c(Nc2cc(C(F)(F)F)nc(-c3cccnc3)n2)c1` [Example 102, 4-(2,5-Diethoxyanilino)-2-(3-pyridinyl)-6-(trifluoromethyl)pyrimidine], in the experiment on ZR-75-1 cells, the pEC50 is 6.15 and the “ZR Ratio 48 hr” value is listed as 7.4. Besides, in the experiment with T-47D cells, the negative-log EC50 (pEC50) was 6.29 and the “T47 Ratio 48 hr” value came out at 8.0.
Taken in the same sequence, the figures for `COc1cccc(CNc2cc(C(F)(F)F)nc(-c3cccnc3)n2)c1` [Example 104, 4-(3-Methoxybenzylamino)-2-(3-pyridinyl)-6-(trifluoromethyl)pyrimidine] were under 5.30, 1.7, under 5.30 and 1.1.
Taken in the same sequence, the figures for `Oc1ccc(Cl)c(Nc2cc(C(F)(F)F)nc(-c3cccnc3)n2)c1` [Example 106, 4-(2-Chloro-5-hydroxyanilino)-2-(3-pyridinyl)-6-(trifluoromethyl)pyrimidine] were 6.01, 2.4, 6.74 and 9.0.
Consider `Oc1ccc(Cl)c(Nc2cc(C(F)(F)F)nc(-c3ccncc3)n2)c1` [Example 107, 4-(2-Chloro-5-hydroxyanilino)-2-(4-pyridinyl)-6-(trifluoromethyl)pyrimidine], for which, in the experiment on ZR-75-1 cells, the pEC50 was 6.91 and the “ZR Ratio 48 hr” value was determined as 5.3. Also, in the experiment on T-47D cells, the pEC50 is 7.20 and the “T47 Ratio 48 hr” value is 8.0.
